Results taken from US20260285850A1, “SUBSTITUTED OXAZOLIDINONES AND IMIDAZOLINONES AS HERBICIDES” (FMC CORPORATION, priority 2023, published 2026).

Key:
Type in all cases: in vivo
[1] = system: palmer (palmer amaranth, palmer pigweed, Amaranthus palmeri); experiment: Test A preemergence soil spray, visual injury rating 0-100; details: 10 days, 0 = no effect, 100 = complete control
Procedure, shortened: (§1)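 Visual injury ratings (0, no effect; 100, complete control) were assigned relative to untreated plants 10 days after treatment. Test chemicals, formulated with a surfactant-containing non-phytotoxic solvent, were applied in loam-sand soil either as a directed soil spray before emergence or to emerged plants, and plants were kept in a greenhouse.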

[2] = system: barnyardgrass (Echinochloa crus-galli); experiment: as above; details: 10 days, 0 = no effect, 100 = complete control
Procedure, shortened: as §1

[3] = system: ryegrass, Italian (italian ryegrass, Lolium multiflorum); experiment: as above; details: 10 days, 0 = no effect, 100 = complete control
Procedure, shortened: as §1

[4] = system: corn (Zea mays); experiment: as above; details: 10 days, 0 = no effect, 100 = complete control
Procedure, shortened: as §1

[5] = system: soybean (Glycine max); experiment: as above; details: 10 days, 0 = no effect, 100 = complete control
Procedure, shortened: as §1

[6] = system: green foxtail (Setaria viridis); experiment: as above; details: 10 days, 0 = no effect, 100 = complete control
Procedure, shortened: as §1

[7] = system: wheat (Triticum aestivum); experiment: as above; details: 10 days, 0 = no effect, 100 = complete control
Procedure, shortened: as §1

[8] = system: ragweed (common ragweed, Ambrosia artemisiifolia); experiment: as above; details: 10 days, 0 = no effect, 100 = complete control
Procedure, shortened: as §1

[9] = system: oat, wild (wild oat, Avena fatua); experiment: as above; details: 10 days, 0 = no effect, 100 = complete control
Procedure, shortened: as §1

[10] = system: blackgrass (Alopecurus myosuroides); experiment: as above; details: 10 days, 0 = no effect, 100 = complete control
Procedure, shortened: as §1

[11] = system: kochia (Bassia scoparia); experiment: as above; details: 10 days, 0 = no effect, 100 = complete control
Procedure, shortened: as §1

[12] = system: palmer (palmer amaranth, palmer pigweed, Amaranthus palmeri); experiment: Test A postemergence application, visual injury rating 0-100; details: 10 days
Procedure, shortened: as §1

[13] = system: horseweed (Erigeron canadensis); experiment: as above; details: 10 days
Procedure, shortened: as §1

[14] = system: barnyardgrass (Echinochloa crus-galli); experiment: as above; details: 10 days
Procedure, shortened: as §1

[15] = system: ryegrass, Italian (italian ryegrass, Lolium multiflorum); experiment: as above; details: 10 days
Procedure, shortened: as §1

[16] = system: corn (Zea mays); experiment: as above; details: 10 days
Procedure, shortened: as §1

[17] = system: soybean (Glycine max); experiment: as above; details: 10 days
Procedure, shortened: as §1

[18] = system: green foxtail (Setaria viridis); experiment: as above; details: 10 days
Procedure, shortened: as §1

[19] = system: wheat (Triticum aestivum); experiment: as above; details: 10 days
Procedure, shortened: as §1

[20] = system: ragweed (common ragweed, Ambrosia artemisiifolia); experiment: as above; details: 10 days
Procedure, shortened: as §1

[21] = system: galium (catchweed bedstraw, Galium aparine); experiment: as above; details: 10 days
Procedure, shortened: as §1

[22] = system: oat, wild (wild oat, Avena fatua); experiment: as above; details: 10 days
Procedure, shortened: as §1

[23] = system: blackgrass (Alopecurus myosuroides); experiment: as above; details: 10 days
Procedure, shortened: as §1

[24] = system: kochia (Bassia scoparia); experiment: as above; details: 10 days
Procedure, shortened: as §1

[25] = system: rice (Oryza sativa); experiment: Test B flooded paddy test, visual plant response rating 0-100; details: 250 g ai/ha, Flood, applied to paddy water, evaluated after 13 days
Procedure, shortened: (§2)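 Visual scores versus untreated controls were recorded 13 days after treatment of greenhouse-held plants. At the 2-leaf stage, pots were flooded 3 cm above the soil surface and compounds added straight to the water.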

[26] = system: barnyardgrass (Echinochloa crusgalli); experiment: as above; details: 250 g ai/ha, Flood, applied to paddy water, evaluated after 13 days
Procedure, shortened: as §2

[27] = system: sedge, umbrella (small-flower umbrella sedge, Cyperus difformis); experiment: as above; details: 250 g ai/ha, Flood, applied to paddy water, evaluated after 13 days
Procedure, shortened: as §2

[28] = system: ducksalad (Heteranthera limosa); experiment: as above; details: 250 g ai/ha, Flood, applied to paddy water, evaluated after 13 days
Procedure, shortened: as §2

[29] = 31 g ai/ha, postemergence, 0 = no effect, 100 = complete control
[30] = Postemergence, 125 g ai/ha, 0 is no effect, 100 is complete control

For `CCOC(=O)C1CC(NC(=O)C2(C)CN(c3cc(F)cc(F)c3)C(=O)O2)CO1` (stereo not shown) [Compound 31], the “Amaranth, Palmer plant response rating (0-100)” value ([1]; 31 g ai/ha) was 0, the “Amaranth, Palmer plant response rating (0 to 100 scale)” value ([1]; 125 g ai/ha) was 10 and the “Barnyardgrass plant response rating (0-100)” value ([2]; 31 g ai/ha) was 0. For the same molecule, the “Barnyardgrass plant response rating (0 to 100 scale)” value ([2]; 125 g ai/ha) was 0, the “Ryegrass, Italian plant response rating (0-100)” value ([3]; 31 g ai/ha) was 0 and the “Ryegrass, Italian plant response rating (0 to 100 scale)” value ([3]; 125 g ai/ha) was 60. For the same molecule, the “Corn plant response rating (0-100)” value ([4]; 31 g ai/ha) was 0, the “Corn plant response rating (0 to 100 scale)” value ([4]; 125 g ai/ha) was 0 and the “Soybean plant response rating (0-100)” value ([5]; 31 g ai/ha) was 0. For the same molecule, the “Soybean plant response rating (0 to 100 scale)” value ([5]; 125 g ai/ha) was 0, the “Foxtail, Green plant response rating (0-100)” value ([6]; 31 g ai/ha) was 0 and the “Foxtail, Green plant response rating (0 to 100 scale)” value ([6]; 125 g ai/ha) was 0. The “Wheat plant response rating (0-100)” value ([7]; 31 g ai/ha) was 0, the “Wheat plant response rating (0 to 100 scale)” value ([7]; 125 g ai/ha) was 90 and the “Ragweed plant response rating (0-100)” value ([8]; 31 g ai/ha) was 0. For the same molecule, the “Ragweed plant response rating (0 to 100 scale)” value ([8]; 125 g ai/ha) was 0, the “Oat, Wild plant response rating (0-100)” value ([9]; 31 g ai/ha) was 0 and the “Oat, Wild plant response rating (0 to 100 scale)” value ([9]; 125 g ai/ha) was 30. The “Blackgrass plant response rating (0-100)” value ([10]; 31 g ai/ha) was 20, the “Blackgrass plant response rating (0 to 100 scale)” value ([10]; 125 g ai/ha) was 30 and the “Kochia plant response rating (0-100)” value ([11]; 31 g ai/ha) was 0. For the same molecule, the “Kochia plant response rating (0 to 100 scale)” value ([11]; 125 g ai/ha) was 0, the “Amaranth, Palmer plant response rating (0-100)” value [12, 29] was 0 and the “Amaranth, Palmer / Pigweed, Palmer plant response rating (0 to 100 scale)” value [12, 30] was 20. For the same molecule, the “Horseweed plant response rating (0-100)” value [13, 29] was 0, the “Horseweed plant response rating (0 to 100 scale)” value [13, 30] was 0 and the “Barnyardgrass plant response rating (0-100)” value [14, 29] was 10. For the same molecule, the “Barnyardgrass plant response rating (0 to 100 scale)” value [14, 30] was 90, the “Ryegrass, Italian plant response rating (0-100)” value [15, 29] was 60 and the “Ryegrass, Italian plant response rating (0 to 100 scale)” value [15, 30] was 90. For the same molecule, the “Corn plant response rating (0-100)” value [16, 29] was 0, the “Corn plant response rating (0 to 100 scale)” value [16, 30] was 50 and the “Soybean plant response rating (0-100)” value [17, 29] was 10. The “Soybean plant response rating (0 to 100 scale)” value [17, 30] was 60, the “Foxtail, Green plant response rating (0-100)” value [18, 29] was 0 and the “Foxtail, Green plant response rating (0 to 100 scale)” value [18, 30] was 80. For the same molecule, the “Wheat plant response rating (0-100)” value [19, 29] was 90, the “Wheat plant response rating (0 to 100 scale)” value [19, 30] was 90 and the “Ragweed plant response rating (0-100)” value [20, 29] was 30. The “Ragweed plant response rating (0 to 100 scale)” value [20, 30] was 50, the “Galium plant response rating (0-100)” value [21, 29] was 60 and the “Galium plant response rating (0 to 100 scale)” value [21, 30] was 70. For the same molecule, the “Oat, Wild plant response rating (0-100)” value [22, 29] was 80, the “Oat, Wild plant response rating (0 to 100 scale)” value [22, 30] was 90 and the “Blackgrass plant response rating (0-100)” value [23, 29] was 90. The “Blackgrass plant response rating (0 to 100 scale)” value [23, 30] was 100, the “Kochia plant response rating (0-100)” value [24, 29] was 0 and the “Kochia plant response rating (0 to 100 scale)” value [24, 30] was 70. The “Plant response rating, Rice (0 to 100 scale, 0 is no effect and 100 is complete control)” value [25] was 0, the “Plant response rating, Barnyardgrass (0 to 100 scale, 0 is no effect and 100 is complete control)” value [26] was 0 and the “Plant response rating, Sedge, Umbrella (0 to 100 scale, 0 is no effect and 100 is complete control)” value [27] was 0. For the same molecule, the “Plant response rating, Ducksalad (0 to 100 scale, 0 is no effect and 100 is complete control)” value [28] was 0.
